For the experiment, the target named is T1, human IL-23R (Homo sapiens, UniProt Q5VWK5).
T1 sequence (Q5VWK5 24-355 limits assumed): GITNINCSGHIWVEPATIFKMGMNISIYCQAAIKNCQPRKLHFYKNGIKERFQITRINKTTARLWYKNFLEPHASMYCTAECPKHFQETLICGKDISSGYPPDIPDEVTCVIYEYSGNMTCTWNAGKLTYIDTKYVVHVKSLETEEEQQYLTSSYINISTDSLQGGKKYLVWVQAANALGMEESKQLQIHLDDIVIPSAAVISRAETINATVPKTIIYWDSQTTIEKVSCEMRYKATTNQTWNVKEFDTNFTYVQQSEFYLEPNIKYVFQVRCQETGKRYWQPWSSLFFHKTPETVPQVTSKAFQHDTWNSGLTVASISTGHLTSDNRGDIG
In words: Human ELISA IL-23/IL-23R binding inhibition. The settings on record: human IL-23 coated, recombinant human IL-23R-Fc chimera. Here is the method: Antagonism of peptide compounds for human interleukin-23 receptor inhibitors, was determined by an ELISA assay.
A 384-well plate was coated with 50 μl/well of human IL-23 at a final concentration of 1 μg/ml and incubated overnight at 4° C. The wells were washed 3 times with 80 μl wash buffer and blocked with 80 μl blocking buffer for 60 minutes at room temperature and washed again. 20 μl of serially diluted test peptides was added to each well and subsequently 20 μl of recombinant human IL-23R-Fc chimera at final concentration of 0.1 μg/ml. The plate was incubated for 60 minutes at room temperature. After the wells were washed, bound IL-23R-Fc was detected with goat anti-hu-lgG1-HRP antibody. Signals were visualized with QuantaBlu Fluorogenic Peroxidase Substrate.

pIC50: −log10 of the molar value. Bridge positions count the residues as written; N and C are the ends. Square brackets hold non-standard residues; d marks the D form. Peptide text beside a SMILES is read from it. Trp(1-Me) = Cn1cc(C[C@H](N)C(=O)O)c2ccccc21; 1Nal = N[C@@H](Cc1cccc2ccccc12)C(=O)O; 2Nal = N[C@@H](Cc1ccc2ccccc2c1)C(=O)O; dOrn = NCCC[C@@H](N)C(=O)O; Orn = NCCC[C@H](N)C(=O)O; Thp = NC1(C(=O)O)CCOCC1; Aib = CC(C)(N)C(=O)O; Ahx = NCCCCCC(=O)O; Ava = NCCCCC(=O)O

With `COc1ccc(C[C@@H]2NC(=O)[C@H](CCCNC(=N)N)NC(=O)[C@H](CCC(N)=O)NC(=O)[C@H](Cc3c[nH]c4ccccc34)NC(=O)[C@H]([C@@H](C)O)NC(=O)[C@H](CC(N)=O)NC(=O)[C@H](NC(C)=O)CCCNC(=O)CC[C@@H](C(=O)N[C@@H](CC(N)=O)C(=O)N[C@@H](CC(N)=O)C(N)=O)NC(=O)C(C)(C)NC(=O)[C@H](Cc3cccc4ccccc34)NC2=O)cc1` [compound 22] (Ac-[dOrn]NTWQRY(Me)[1Nal][Aib]ENN-NH2; lactam 1-10), the pIC50 was 7.32.

Consider `CC(=O)N[C@H]1CC(=O)NCCC[C@@H](C(=O)N[C@@H](CC(N)=O)C(=O)N[C@@H](CC(N)=O)C(N)=O)NC(=O)C(C)(C)NC(=O)[C@H](Cc2ccc3ccccc3c2)NC(=O)[C@H](Cc2ccc(O)cc2)NC(=O)[C@H](CCCNC(=N)N)NC(=O)[C@H](CCC(N)=O)NC(=O)[C@H](Cc2cn(C)c3ccccc23)NC(=O)[C@H]([C@@H](C)O)NC(=O)[C@H](CC(N)=O)NC1=O` [compound 33] (Ac-DNT[Trp(1-Me)]QRY[2Nal][Aib][Orn]NN-NH2; lactam 1-10), for which the pIC50 is 8.47.

In the case of `COc1ccc(C[C@@H]2NC(=O)[C@H](CCCNC(=N)N)NC(=O)[C@H](CCC(N)=O)NC(=O)[C@H](Cc3cn(C)c4ccccc34)NC(=O)[C@H]([C@@H](C)O)NC(=O)[C@H](CC(N)=O)NC(=O)[C@@H](NC(C)=O)CC(=O)NCCC[C@@H](C(=O)N[C@@H](CC(N)=O)C(=O)N[C@@H](CC(N)=O)C(N)=O)NC(=O)C(C)(C)NC(=O)[C@H](Cc3ccc4ccccc4c3)NC2=O)cc1` [compound 34] (Ac-DNT[Trp(1-Me)]QRY(Me)[2Nal][Aib][Orn]NN-NH2; lactam 1-10), the pIC50 was 8.67.

Regarding `COc1ccc(C[C@@H]2NC(=O)[C@H](CCCNC(=N)N)NC(=O)[C@H](CCC(N)=O)NC(=O)[C@H](Cc3cn(C)c4ccccc34)NC(=O)[C@H]([C@@H](C)O)NC(=O)[C@H](CC(N)=O)NC(=O)[C@@H](NC(C)=O)CCC(=O)NCCC[C@@H](C(=O)N[C@@H](CC(N)=O)C(=O)N[C@@H](CC(N)=O)C(N)=O)NC(=O)C(C)(C)NC(=O)[C@H](Cc3ccc4ccccc4c3)NC2=O)cc1` [compound 35] (Ac-ENT[Trp(1-Me)]QRY(Me)[2Nal][Aib][Orn]NN-NH2; lactam 1-10), the pIC50 was 8.34.

Take `COc1ccc(C[C@@H]2NC(=O)[C@H](CCCNC(=N)N)NC(=O)[C@H](CCC(N)=O)NC(=O)[C@H](Cc3cn(C)c4ccccc34)NC(=O)[C@H]([C@@H](C)O)NC(=O)[C@H](CC(N)=O)NC(=O)[C@@H](NC(C)=O)CC(=O)NCCC[C@@H](C(=O)N[C@@H](CC(N)=O)C(=O)N[C@@H](CC(N)=O)C(N)=O)NC(=O)C(C)(C)NC(=O)[C@H](Cc3c[nH]c4ccccc34)NC2=O)cc1` [compound 36] (Ac-DNT[Trp(1-Me)]QRY(Me)W[Aib][Orn]NN-NH2; lactam 1-10): the pIC50 was 7.71.

As to `COc1ccc(C[C@@H]2NC(=O)[C@H](CCCNC(=N)N)NC(=O)[C@H](CCC(N)=O)NC(=O)[C@H](Cc3cn(C)c4ccccc34)NC(=O)[C@H]([C@@H](C)O)NC(=O)[C@H](CC(N)=O)NC(=O)[C@@H](NC(C)=O)CC(=O)NCCC[C@@H](C(=O)N[C@@H](CC(N)=O)C(=O)N[C@@H](CC(N)=O)C(N)=O)NC(=O)[C@H](CC(C)C)NC(=O)[C@H](Cc3ccc4ccccc4c3)NC2=O)cc1` [compound 37] (Ac-DNT[Trp(1-Me)]QRY(Me)[2Nal]L[Orn]NN-NH2; lactam 1-10), the pIC50 is 8.45.

For `COc1ccc(C[C@@H]2NC(=O)[C@H](CCCNC(=N)N)NC(=O)[C@H](CCC(N)=O)NC(=O)[C@H](Cc3c[nH]c4ccccc34)NC(=O)[C@H](Cc3c[nH]cn3)NC(=O)[C@H](CC(N)=O)NC(=O)[C@@H](NC(C)=O)CCCCNC(=O)C[C@@H](C(=O)N[C@@H](CC(N)=O)C(=O)N[C@@H](CC(N)=O)C(N)=O)NC(=O)C3(CCOCC3)NC(=O)[C@H](Cc3ccc4ccccc4c3)NC2=O)cc1` [compound 42] (Ac-KNHWQRY(Me)[2Nal][Thp]DNN-NH2; lactam 1-10), the pIC50 is 7.74.

Regarding `COc1ccc(C[C@@H]2NC(=O)[C@H](C)NC(=O)[C@H](CCC(N)=O)NC(=O)[C@H](Cc3c[nH]c4ccccc34)NC(=O)[C@H]([C@@H](C)O)NC(=O)[C@H](CC(N)=O)NC(=O)CCCCCNC(=O)C[C@@H](C(=O)N[C@@H](CC(N)=O)C(=O)N[C@@H](CC(N)=O)C(N)=O)NC(=O)C(C)(C)NC(=O)[C@H](Cc3ccc4ccccc4c3)NC2=O)cc1` [compound 43] ([Ahx]NTWQAY(Me)[2Nal][Aib]DNN-NH2; lactam N-10), the pIC50 was 8.84.

For `COc1ccc(C[C@@H]2NC(=O)[C@H](C)NC(=O)[C@H](CCC(N)=O)NC(=O)[C@H](Cc3c[nH]c4ccccc34)NC(=O)[C@H]([C@@H](C)O)NC(=O)[C@H](CC(N)=O)NC(=O)CCCCNC(=O)C[C@@H](C(=O)N[C@@H](CC(N)=O)C(=O)N[C@@H](CC(N)=O)C(N)=O)NC(=O)C(C)(C)NC(=O)[C@H](Cc3ccc4ccccc4c3)NC2=O)cc1` [compound 44] ([Ava]NTWQAY(Me)[2Nal][Aib]DNN-NH2; lactam N-10), the pIC50 is 8.33.

On to `COc1ccc(C[C@@H]2NC(=O)[C@H](C)NC(=O)[C@H](CCC(N)=O)NC(=O)[C@H](Cc3c[nH]c4ccccc34)NC(=O)[C@H]([C@@H](C)O)NC(=O)[C@H](CCCNC(=N)N)NC(=O)[C@H](NC(C)=O)CCCCNC(=O)C[C@@H](C(=O)N[C@@H](CC(N)=O)C(=O)N[C@@H](CC(N)=O)C(N)=O)NC(=O)C(C)(C)NC(=O)[C@H](Cc3ccc4ccccc4c3)NC2=O)cc1` [compound 45] (Ac-[dK]RTWQAY(Me)[2Nal][Aib]DNN-NH2; lactam 1-10), for which the pIC50 was 9.02.

`COc1ccc(C[C@@H]2NC(=O)[C@H](C)NC(=O)[C@H](CCC(N)=O)NC(=O)[C@H](Cc3c[nH]c4ccccc34)NC(=O)[C@H](CCCNC(=N)N)NC(=O)[C@H](CC(N)=O)NC(=O)[C@H](NC(C)=O)CCCCNC(=O)C[C@@H](C(=O)N[C@@H](CC(N)=O)C(=O)N[C@@H](CC(N)=O)C(N)=O)NC(=O)C(C)(C)NC(=O)[C@H](Cc3ccc4ccccc4c3)NC2=O)cc1` [compound 46] (Ac-[dK]NRWQAY(Me)[2Nal][Aib]DNN-NH2; lactam 1-10): the pIC50 is 8.86.

Turning to `COc1ccc(C[C@@H]2NC(=O)[C@H](C)NC(=O)[C@H](CCC(N)=O)NC(=O)[C@H](Cc3c[nH]c4ccccc34)NC(=O)[C@H]([C@@H](C)O)NC(=O)[C@H](CC(N)=O)NC(=O)[C@H](NC(C)=O)CCCCNC(=O)C[C@@H](C(=O)N[C@@H](CC(N)=O)C(=O)N[C@@H](C)C(N)=O)NC(=O)C(C)(C)NC(=O)[C@H](Cc3ccc4ccccc4c3)NC2=O)cc1` [compound 48] (Ac-[dK]NTWQAY(Me)[2Nal][Aib]DNA-NH2; lactam 1-10), the pIC50 was 8.69.

Turning to `COc1ccc(C[C@@H]2NC(=O)[C@H](C)NC(=O)[C@H](CCC(N)=O)NC(=O)[C@H](Cc3c[nH]c4ccccc34)NC(=O)[C@H]([C@@H](C)O)NC(=O)[C@H](CC(N)=O)NC(=O)[C@H](NC(C)=O)CCCCNC(=O)C[C@@H](C(=O)N[C@@H](C)C(=O)N[C@@H](CC(N)=O)C(N)=O)NC(=O)C(C)(C)NC(=O)[C@H](Cc3ccc4ccccc4c3)NC2=O)cc1` [compound 49] (Ac-[dK]NTWQAY(Me)[2Nal][Aib]DAN-NH2; lactam 1-10), the pIC50 is 8.50.

For the origin of these results see patent US20260250322A1, “NEW PEPTIDES AS SELECTIVE IL-23 RECEPTOR INHIBITORS” (SANOFI, priority 2023, published 2026).
